The text below walks through data of ChEMBL document CHEMBL1156968, “2,5-Disubstituted pyridines as potent GPR119 agonists” (Bioorg Med Chem Lett, 2010).

≈ marks a conversion by molar mass, not a printed value.

The target in series [1] is T1, Glucose-dependent insulinotropic receptor (Homo sapiens) (UniProt Q8TDV5).
T1 sequence (whole entry): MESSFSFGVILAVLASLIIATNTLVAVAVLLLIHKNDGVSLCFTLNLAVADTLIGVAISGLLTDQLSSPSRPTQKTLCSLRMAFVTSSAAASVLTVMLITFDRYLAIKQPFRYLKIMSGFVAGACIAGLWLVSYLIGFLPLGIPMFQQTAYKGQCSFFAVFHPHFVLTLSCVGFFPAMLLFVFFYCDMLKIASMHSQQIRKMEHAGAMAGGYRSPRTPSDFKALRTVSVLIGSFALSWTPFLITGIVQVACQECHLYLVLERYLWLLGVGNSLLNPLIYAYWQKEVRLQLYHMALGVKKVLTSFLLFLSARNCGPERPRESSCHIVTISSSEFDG
As to the kind of experiment: Agonist activity at human GPR119 receptor expressed in CHO-K1 cells co-transfected with 6CRE-Luc after 5 hrs by luciferase reporter gene assay relative to N-(4-(1H-1,2,4-triazol-1-yl)phenyl)-5-nitro-6-(4-(pyridin-2-ylthio)piperidin-1-yl)pyrimidin-4-amine maximal response. The format is functional, cell-based. (In general: In a reporter assay the amount or activity of a reporter protein is the signal.)

The target of series [2] is T2, Glucose-dependent insulinotropic receptor (Homo sapiens, UniProt Q8TDV5).
T2 sequence (Q8TDV5 whole entry): T1 sequence (whole entry)
As to the kind of experiment: Agonist activity at human GPR119 receptor expressed in CHO-K1 cells co-transfected with 6CRE-Luc after 5 hrs by luciferase reporter gene assay. The format is functional, cell-based.

For series [3], the target named is T2, Glucose-dependent insulinotropic receptor. As to the kind of experiment: Agonist activity at human GPR119 receptor by cAMP mobilization assay. The format is functional.
Series [4] in a line: Volume of distribution at steady state in mouse at 3 mg/kg, iv. Set-up: dose 3 mg/kg, route intravenous. The format is ADME, organism-based. To be noted: in vivo, read-out: Vdss.
The test system of a further series is Mus musculus. As to the kind of experiment: Clearance in mouse at 3 mg/kg, iv. In kind it is ADME, organism-based. Set-up: dose 3 mg/kg, route intravenous. To be noted: in vivo.
Series [5] in a line: Solubility in fasted simulated intestinal fluid at pH 6.5. The format is physicochemical.
Series [6] is described as follows: Tmax in mouse at 3 mg/kg, iv. The format is ADME, organism-based. The settings on record: in vivo. Set-up: dose 3 mg/kg, route intravenous.
Series [7] is described as follows: Half life in mouse at 3 mg/kg, iv. The format is ADME, organism-based. The arrangement: dose 3 mg/kg, route intravenous. The settings on record: in vivo.
A short description of series [8]: Membrane permeability by PAMPA method. In kind it is ADME. To be noted: read-out: permeability. On the technique in general: PAMPA measures passive passage across an artificial lipid membrane.
Series [9] in a line: AUC (0 to 24) in mouse at 3 mg/kg, iv. In kind it is ADME, organism-based. The arrangement: time < 24 hr, dose 3 mg/kg, route intravenous. To be noted: plasma.
A short description of series [10]: Cmax in mouse at 3 mg/kg, iv. The format is ADME, organism-based. Set-up: dose 3 mg/kg, route intravenous. The settings on record: in vivo.
A short description of series [11]: Cmax in mouse at 30 mg/kg, po. The format is ADME, organism-based. The arrangement: dose 30 mg/kg, route oral. To be noted: in vivo.
A short description of series [12]: Half life in mouse at 30 mg/kg, po. The settings on record: in vivo. The arrangement: dose 30 mg/kg, route oral. In kind it is ADME, organism-based.
Series [13] can be described thus: AUC (0 to 24) in mouse at 30 mg/kg, po. In kind it is ADME, organism-based. Set-up: time < 24 hr, dose 30 mg/kg, route oral. To be noted: plasma.
The nature of series [14]: Oral bioavailability in mouse at 30 mg/kg. The settings on record: in vivo. The format is ADME, organism-based.
The nature of series [15]: Tmax in mouse at 30 mg/kg, po. The settings on record: in vivo. The format is ADME, organism-based. The arrangement: dose 30 mg/kg, route oral.

`CC(C)OC(=O)N1CCC(COc2ccc(N3CCN(S(=O)(=O)C(C)C)CC3)nc2)CC1` showed an Activity in series [1] of 171%. For the same compound, it took 300 nM to reach a half-maximal effect in [2] (EC50).

`CCS(=O)(=O)N1CCN(c2ccc(OC3CCN(C(=O)OC(C)C)CC3)cn2)CC1` had an Activity in series [1] of 93%. Besides, in series [2], the response was half-maximal at 2100 nM (EC50).

`CCS(=O)(=O)N1CCN(c2ccc(OCCC3CCN(C(=O)OC(C)C)CC3)cn2)CC1`: the Activity in [1] was found to be 69%. The EC50 in [2] stood at 1200 nM.

`CC(C)OC(=O)N1CCC(COc2ccc(N3CCN(C(=O)N(C)C)CC3)nc2)CC1`: in [1], the Activity amounted to 23%. In addition, the EC50 in [2] is > 10000 nM.

In turn, `CCS(=O)(=O)N1CCN(c2ccc(OCC3CCN(C(=O)OC(C)C)CC3)cn2)CC1` showed an Activity in series [1] of 167%. This compound had an EC50 in series [2] of 1300 nM.

Turning to `CCCS(=O)(=O)N1CCN(c2ccc(OCC3CCN(C(=O)NC4CCCCC4)CC3)cn2)CC1`, in [1], the Activity was 16%. The EC50 in series [2] was > 10000 nM.

`CCN(CC)S(=O)(=O)N1CCN(c2ccc(OCC3CCN(C(=O)OC(C)C)CC3)cn2)CC1` gave an Activity in [1] of 125%. Also, in [2], the response was half-maximal at 1200 nM (EC50).

As for `CCCS(=O)(=O)N1CCN(c2ccc(OCC3CCN(C(=O)CC(C)C)CC3)cn2)CC1`, the Activity in [1] was determined as 186%. This compound came in with an EC50 in [2] of 1600 nM.

Compound `CCCCS(=O)(=O)N1CCN(c2ccc(OCC3CCN(C(=O)OC(C)C)CC3)cn2)CC1` showed an Activity in [1] of 164%. The compound also yielded an EC50 in series [2] of 100 nM.

`O=[N+]([O-])c1c(Nc2ccc(-n3cncn3)cc2)ncnc1N1CCC(Sc2ccccn2)CC1`: the EC50 in [3] amounted to 130 nM.

With `CCCS(=O)(=O)N1CCN(c2ccc(OCC3CCN(C(=O)NC(C)C)CC3)cn2)CC1`, the Activity in series [1] stood at 45%. The compound further gave an EC50 in series [2] of 1000 nM.

`CC(C)OC(=O)N1CCC(COc2ccc(N3CCN(S(=O)(=O)N4CCCCC4)CC3)nc2)CC1` came in with an Activity in series [1] of 118%. In [2], this compound returned an EC50 of 1000 nM.

As to `CCCS(=O)(=O)N1CCN(c2ccc(OCCC3CCN(C(=O)OC(C)C)CC3)cn2)CC1`, the Activity in series [1] turned out to be 95%. Also, the EC50 in [2] was determined as 700 nM.

The compound `CCCS(=O)(=O)N1CCN(c2ccc(OCC3CCN(C(=O)Nc4ccc(C(C)C)cc4)CC3)cn2)CC1` yielded an Activity in series [1] of 67%. For the same compound, in series [2], the midpoint of the response, the EC50, lay at 900 nM.

`CCCS(=O)(=O)N1CCN(c2ccc(OCC3CCN(C(=O)C(F)F)CC3)cn2)CC1` had an Activity in [1] of 97%. In addition, the response in series [2] was half-maximal at 2100 nM (EC50).

Regarding `COCCS(=O)(=O)N1CCN(c2ccc(OCC3CCN(C(=O)OC(C)C)CC3)cn2)CC1`, the Activity in series [1] came out at 178%. For the same compound, the EC50 in [2] worked out at 300 nM.

In turn, `CC(C)OC(=O)N1CCC(COc2ccc(N3CCN(S(=O)(=O)c4cccnc4)CC3)nc2)CC1` showed an Activity in series [1] of 100%. This compound returned an EC50 in [2] of 2000 nM.

On to `CCCS(=O)(=O)N1CCN(c2ccc(OCC3CCN(C(=O)CC(C)(C)C)CC3)cn2)CC1`, for which the Activity in series [1] came out at 175%. In series [2], a half-maximal response (EC50) required 2800 nM.

Consider `CCCS(=O)(=O)N1CCN(c2ccc(OCC3CCN(C(=O)OC(C)C)CC3)cn2)CC1`, for which, in series [4], the Vd was 0.76 L/kg. This compound also came in with a clearance with Mus musculus of 15.7 mL/min/kg. The compound further returned a solubility in series [5] of 3.41 µg/mL (≈ 7.28 µM). Besides, the Tmax in [6] was found to be 45 min; in series [15], 15 min. For the same compound, the half-life was 37.2 min in series [7] and 24 min in [12]. In [1], the Activity amounted to 153%. Also, the Papp in [8] came out at 47 ×10⁻⁶ cm/s. Also, in series [2], the EC50 turned out to be 300 nM. For the same compound, the AUC at 24 h came out at 3130 ng·h/mL in series [9] and 2350 ng·h/mL in series [13]. The Cmax in [10] came to 3080 ng/mL; in series [11], 3000 ng/mL. The compound also gave a bioavailability in series [14] of 8%.

For `CCCS(=O)(=O)N1CCN(c2ccc(OCC3CCN(C(=O)NC(C)(C)C)CC3)cn2)CC1`, the Activity in series [1] came out at 75%. In addition, the EC50 in series [2] stood at 800 nM.

`CC(C)OC(=O)N1CCC(COc2ccc(N3CCN(S(=O)(=O)C4CCCCC4)CC3)nc2)CC1`: the Activity in series [1] is 165%. This compound also returned an EC50 in series [2] of 200 nM.

In the case of `COCCN1CCN(c2ccc(OCC3CCN(C(=O)OC(C)C)CC3)cn2)CC1`, in [1], the Activity worked out at 28%. For the same compound, the EC50 in [2] worked out at 2600 nM.

For the compound `CC(=O)N1CCN(c2ccc(OCC3CCN(C(=O)OC(C)C)CC3)cn2)CC1`, the Activity in series [1] is < 10%. For the same compound, in [2], the EC50 was > 10000 nM.

For the compound `CCCS(=O)(=O)N1CCN(c2ccc(OCC3CCN(C(=O)c4ccco4)CC3)cn2)CC1`, in series [1], the Activity was determined as 112%. In addition, in series [2], the EC50 is 2000 nM.

Regarding `CCCS(=O)(=O)N1CCN(c2ccc(OCC3CCN(C(=O)N4CCOCC4)CC3)cn2)CC1`, the Activity in series [1] was found to be 41%. Also, in series [2], the EC50 was > 10000 nM.

In the case of `CC(C)OC(=O)N1CCC(COc2ccc(N3CCN(S(=O)(=O)c4cccs4)CC3)nc2)CC1`, the Activity in series [1] is 69%. In addition, the EC50 in series [2] came to 1800 nM.

Turning to `CC(C)OC(=O)N1CCC(COc2ccc(N3CCN(C(=O)c4ccco4)CC3)nc2)CC1`, in [1], the Activity turned out to be 112%. Besides, it took 1900 nM to reach a half-maximal effect in series [2] (EC50).

Take `CC(C)OC(=O)N1CCC(COc2ccc(N3CCN(S(=O)(=O)CC4CCCCC4)CC3)nc2)CC1`: the Activity in series [1] was 136%. Moreover, the EC50 in series [2] came out at 90 nM.

In series [1], `CC(C)NC(=O)CN1CCN(c2ccc(OCC3CCN(C(=O)OC(C)C)CC3)cn2)CC1` returned an Activity of 11%. Besides, the EC50 in series [2] is > 10000 nM.

The EC50 is the concentration needed to bring the measured effect to its halfway point. By clearance is commonly meant the rate of elimination divided by the concentration. The low end stands for a low capacity for elimination, the high end for a high capacity for elimination. Broadly, the solubility is the dissolved amount per volume that the medium holds. Read a high solubility as a readily soluble substance. Broadly, the Tmax is the time at which the peak concentration occurs. For orientation: half-life means the time in which the quantity being followed falls by half. What is called AUC is concentration integrated over time. A higher AUC goes with more exposure. One may read the Cmax as the peak of the concentration-time curve. One may read the bioavailability as the share of a dose that reaches the circulation, judged against a reference dose that is usually intravenous.
